Measurements taken from patent US5128362A, “1-aminomethyl-1,2,3,4-tetrahydronaphthalenes” (Abbott Laboratories, priority 1990, dated 1992).
pIC50, pKi: −log10 of the molar value. Structures can show the parent of a compound that is named as a salt. Where two headings read alike, the source gives them in different places.

Assays:
alpha 2 receptor [1] = target: T1, alpha 2 receptor (Rattus norvegicus, UniProt P22909); test: Radioligand binding, [3H]rauwolscine, rat cerebral cortices; conditions: read-out: Ki alpha-2
T1 construct: rat cerebral cortices; from tissue; host or cells: rat cerebral cortices
T1 sequence (P22909 1-465): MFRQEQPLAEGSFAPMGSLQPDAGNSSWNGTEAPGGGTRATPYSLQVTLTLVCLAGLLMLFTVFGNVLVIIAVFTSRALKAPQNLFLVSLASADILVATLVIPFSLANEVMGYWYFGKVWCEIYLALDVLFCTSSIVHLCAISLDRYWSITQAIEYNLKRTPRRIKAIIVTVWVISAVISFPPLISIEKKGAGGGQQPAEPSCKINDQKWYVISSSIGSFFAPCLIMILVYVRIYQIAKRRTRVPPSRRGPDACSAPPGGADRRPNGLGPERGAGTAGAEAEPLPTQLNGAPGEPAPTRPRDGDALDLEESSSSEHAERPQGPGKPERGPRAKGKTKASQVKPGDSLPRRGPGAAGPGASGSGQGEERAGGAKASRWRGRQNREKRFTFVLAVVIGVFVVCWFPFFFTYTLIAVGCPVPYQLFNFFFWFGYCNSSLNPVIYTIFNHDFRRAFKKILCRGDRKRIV
Experimental: (§1) The compounds were assessed for alpha-adrenergic receptor subtype selectivity by use of radioligand binding techniques as described previously (DeBernardis et. al. J. Med. Chem. 28, 1398 (1985)).

alpha 2 receptor [2] = test: as above; conditions: Ki alpha 1/Ki alpha-2
Experimental: as §1

alpha 1 receptor = target: T2, alpha 1 receptor (Rattus norvegicus, UniProt P15823); test: Radioligand binding, [3H]-prazosin, rat liver homogenates
T2 construct: rat liver homogenates; from tissue; host or cells: rat liver homogenates
T2 sequence (P15823 1-515): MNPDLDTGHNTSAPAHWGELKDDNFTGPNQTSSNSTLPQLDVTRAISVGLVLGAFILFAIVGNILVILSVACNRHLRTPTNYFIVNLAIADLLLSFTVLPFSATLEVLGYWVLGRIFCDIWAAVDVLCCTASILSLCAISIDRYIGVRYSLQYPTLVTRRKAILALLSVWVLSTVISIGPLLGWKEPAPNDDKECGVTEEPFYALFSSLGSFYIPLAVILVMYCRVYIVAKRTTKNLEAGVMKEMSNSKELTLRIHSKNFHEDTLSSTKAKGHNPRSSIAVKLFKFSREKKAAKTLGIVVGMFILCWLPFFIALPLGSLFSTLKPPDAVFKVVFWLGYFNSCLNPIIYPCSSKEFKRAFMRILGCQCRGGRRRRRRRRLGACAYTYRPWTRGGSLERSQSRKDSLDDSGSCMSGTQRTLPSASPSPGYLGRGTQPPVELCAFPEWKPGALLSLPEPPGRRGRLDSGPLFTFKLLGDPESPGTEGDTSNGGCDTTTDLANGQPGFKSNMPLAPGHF
Experimental: as §1

serotonin uptake = test: Uptake inhibition, tritiated serotonin, rat brain synaptosomes; type: biochemical, Sprague-Dawley derived rats; conditions: 0.1 μM tritiated amine, 37° C., 4 minutes, read-out: Biogenic Amine Uptake Inhibition IC50 Serotonin
From the text: (§2) Sprague-Dawley derived rats of either sex, weighing about 180-250 g, were killed by decapitation. The brains were immediately removed, placed on a glass plate chilled over crushed ice and dissected according to a modification of the method of Glowinski and Iversen (J. Neurochem. 13, 655-669, 1966). First, the rhombencephalon was separated by transverse section and discarded. The remaining tissue was bisected by a midline sagittal cut. The hypothalamus was removed using the anterior and posterior reference points, respectively. The hippocampus was peeled away and discarded and the striata were exposed and removed. Frontal cortical tissue was dissected from remaining brain structures. […]
(§3) Uptake studies were conducted according to the method of Synder and Coyle (J. Pharmacol. Exp. Ther. 165, 78-86, 1969) with minor modifications. Usually a 0.1 ml aliquot of the synaptosomal preparation was incubated in a mixture of 0.75 ml of modified Krebs-Ringer buffer, 0.05 ml of the drug being evaluated for uptake inhibition, and 0.1 ml of a 1 μM tritiated amine (norepinephrine, serotonin or dopamine) solution (final concentration 0.1 μM) for a total volume of 1 ml. […] All samples were cold and dark adapted and counted in a Tri-Carb® (Packard) Model 460 Liquid Scintillation Spectrometer. Corrections were automatically made for quenching by the external standard method and for luminescence. […]

dopamine uptake = test: Uptake inhibition, tritiated dopamine, rat brain synaptosomes; type: biochemical, Sprague-Dawley derived rats; conditions: 0.1 μM tritiated amine, 37° C., 4 minutes, read-out: Biogenic Amine Uptake Inhibition IC50 Dopamine
From the text: as §2, §3

norepinephrine uptake = test: Uptake inhibition, tritiated norepinephrine, rat brain synaptosomes; type: biochemical, Sprague-Dawley derived rats; conditions: 0.1 μM tritiated amine, 37° C., 4 minutes, read-out: Biogenic Amine Uptake Inhibition IC50 Norephinephrine
From the text: as §2, §3

[3] = rat cerebral cortices, [3H]rauwolscine

Structure (SMILES)	pKi (alpha 2 receptor [1])	alpha-2 - Selectivity Ki alpha 1/Ki alpha-2 (alpha 2 receptor [2])	also measured
COc1ccc2c(c1)CCCC2CN1CCC(c2ccccc2)C1 (stereo not shown) [Example 121, 6-Methoxy-1-(3-phenylpyrrolidino-1-methyl) tetralin hydrochloride]	9.00	95	–
CN(CCc1cccs1)CC1CCCc2c(Cl)cccc21 (stereo not shown) [Example 129, 1-((N-Methylamino)methyl-N-(2-(2-thieny)ethyl))-5-chloro tetralin hydrochloride]	8.44	55	–
c1ccc(C2CCN(CC3CCCc4c3ccc3c4OCO3)C2)cc1 (stereo not shown) [Example 143a, 5,6-Methylenedioxy-1-(3-phenylpyrrolidino-1-methyl) tetralin methanesulfonate]	8.92	43	–
COc1cccc2c1CCCC2CN1CCC(c2cccs2)C1 (stereo not shown) [Example 146, 5-Methoxy-1-(3-(2-thienyl)pyrrolidino-1-methyl) tetralin hydrochloride]	8.31	35	–
Fc1ccc2c(c1)CCCC2CN1CCC(c2ccccc2)C1 (stereo not shown) [Example 148, 6-Fluoro-1-(3-phenylpyrrolidino-1-methyl) tetralin methanesulfonate]	8.19	19	–
Fc1ccc2c(c1)CCCC2CN1CCC(c2cccs2)C1 (stereo not shown) [Example 149, 6-Fluoro-1-(3-(2-thienyl)pyrrolidino-1-methyl) tetralin methanesulfonate]	–	45	pKi (alpha 2 receptor [1]; [3]): 8.31
COc1ccc2c(c1)CCC2CN1CCC(c2cccs2)C1 (stereo not shown) [Example 151, 5-Methoxy-1-(3-(2-thienyl)pyrrolidino-1-methyl) indane hydrochloride]	8.60	71	–
COc1ccc2c(c1)CCC2CN1CCC(c2ccccc2)C1 (stereo not shown) [Example 152, 5-Methoxy-1-(3-phenylpyrrolidino-1-methyl) indane hydrochloride]	–	11	pKi (alpha 2 receptor [1]; [3]): 8.32; pKi (alpha 1 receptor): 7.29
COc1ccc2c(c1)CCC2CN1CCC(c2cccc(F)c2)C1 (stereo not shown) [Example 153, 5-Methoxy-1-(3-(m-fluorophenyl)pyrrolidino-1-methyl) indane hydrochloride]	8.07	7	–
Nc1ccc2c(c1)CCCC2CN1CCC(c2ccccc2)C1 (stereo not shown) [Example 156, 6-Amino-1-(3-phenylpyrrolidino-1-methyl) tetralin dihydrochloride]	8.22	21	–
Fc1cc2c(c3c1C(CN1CCC(c4ccccc4)C1)CCC3)OCO2 (stereo not shown) [Example 160, 8-Fluoro-5,6-methylenedioxy-1-(3-phenylpyrrolidino-1-methyl) tetralin hydrochloride]	–	–	pIC50 (serotonin uptake): 5.73; pIC50 (dopamine uptake): 5.53; pIC50 (norepinephrine uptake): 6.00
CN(CCc1cccc(F)c1)CC1CCCc2c1ccc1c2OCCO1 (stereo not shown) [Example 167, 1-((N-Methylamino)methyl-N-(2-m-fluorophenethyl))-5,6-ethylenedioxy tetralin methanesulfonate]	8.38	85	–
CN(c1ccc2c(c1)CCCC2CN1CCC(c2ccccc2)C1)S(C)(=O)=O (stereo not shown) [Example 193, 6-(N-methylmethylsulfonamido)-1-(3-phenylpyrrolidino-1-methyl)tetralin hydrochloride]	8.89	93	–
